Test results taken from ChEMBL document CHEMBL4390668, “Discovery and Structural Optimization of Acridones as Broad-Spectrum Antimalarials” (J Med Chem, 2019).
Active and inactive are the calls of the source. The calls are words filed in the database; no cut-off is given here.

Columns and labels:
[1] = Half life in mouse liver microsomes at 1 uM by LC-MS analysis; format: ADME, Microsome
Plasmodium falciparum [2] = test: Antimalarial activity against atovaquone-resistant Plasmodium falciparum Tm90-C2B infected in human erythrocytes by SYBR green 1-based fluorescence assay; format: functional, organism-based
Plasmodium falciparum [3] = test: Antimalarial activity against chloroquine-sensitive Plasmodium falciparum D6 infected in human erythrocytes by SYBR green 1-based fluorescence assay; format: functional, organism-based
[4] = Half life in human liver microsomes at 1 uM by LC-MS analysis; format: ADME, Microsome
Plasmodium falciparum [5] = test: Antimalarial activity against multidrug-resistant Plasmodium falciparum 7G8 infected in human erythrocytes by SYBR green 1-based fluorescence assay; format: functional, organism-based
[6] = Selectivity index, ratio of IC50 for human HepG2 cells to IC50 for chloroquine-sensitive Plasmodium falciparum D6 infected in human erythrocytes; format: toxicity, cell-based; conditions: read-out: Ratio IC50
Plasmodium falciparum [7] = test: Antimalarial activity against multidrug-resistant Plasmodium falciparum Dd2 infected in human erythrocytes by SYBR green 1-based fluorescence assay; format: functional, organism-based
HepG2 = test: Cytotoxicity against human HepG2 cells measured after 24 to 36 hrs by resazurin dye based fluorescence assay; format: cell-based
Plasmodium berghei = test: Antimalarial activity against luciferase-expressing Plasmodium berghei ANKA 676m1cl1 sporozoites infected in human HepG2A16 cells measured after 45 hrs by luciferase-luciferin based reporter assay; format: functional, organism-based; conditions: ANKA 676m1cl1, HepG2A16, 45 h
Plasmodium falciparum [8] = test: Antimalarial activity against drug-resistant Plasmodium falciparum 3D7 harboring A82T/V259L double mutant infected in human erythrocytes after 72 hrs by SYBR green 1-based fluorescence assay; format: functional, organism-based; conditions: 3D7, 72 h
Plasmodium falciparum [9] = test: Antimalarial activity against drug-resistant Plasmodium falciparum Dd2 harboring M133I/A138T double mutant infected in human erythrocytes after 72 hrs by SYBR green 1-based fluorescence assay; format: functional, organism-based; conditions: Dd2, 72 h
Plasmodium falciparum [10] = test: Antimalarial activity against drug-resistant Plasmodium falciparum Dd2 harboring V259L mutant infected in human erythrocytes after 72 hrs by SYBR green 1-based fluorescence assay; format: functional, organism-based; conditions: Dd2, 72 h
Plasmodium falciparum [11] = test: Antimalarial activity against Plasmodium falciparum 3D7 infected in human erythrocytes after 72 hrs by SYBR green 1-based fluorescence assay; format: functional, organism-based; conditions: 3D7, 72 h
Plasmodium falciparum [12] = test: Inhibition of Plasmodium falciparum cytochrome b-c1
Plasmodium falciparum [13] = test: Antimalarial activity against drug-resistant Plasmodium falciparum Dd2 harboring M133I mutant infected in human erythrocytes after 72 hrs by SYBR green 1-based fluorescence assay; format: functional, organism-based; conditions: Dd2, 72 h
Plasmodium yoelii = test: Antimalarial activity against blood stage Plasmodium yoelii MR4 MRA-428 infected in CF1 mouse assessed as suppression of parasitemia administered once daily via oral gavage for 4 days starting from 24 hrs post-infection and measured post-last dose by Giemsa-staining based microscopic analysis; format: functional
[14] = Mutagenicity in Salmonella typhimurium TA100 assessed as increase in revertant colonies up to 10 uM in absence of S9 fraction by Ames test; format: toxicity; conditions: salmonella enterica subsp. enterica serovar typhimurium
[15] = Mutagenicity in Salmonella typhimurium TA100 assessed as increase in revertant colonies up to 10 uM in presence of S9 fraction by Ames test; format: toxicity, subcellular; conditions: salmonella enterica subsp. enterica serovar typhimurium
[16] = Mutagenicity in Salmonella typhimurium TA98 assessed as increase in revertant colonies up to 10 uM in absence of S9 fraction by Ames test; format: toxicity; conditions: salmonella enterica subsp. enterica serovar typhimurium
[17] = Mutagenicity in Salmonella typhimurium TA98 assessed as increase in revertant colonies up to 10 uM in presence of S9 fraction by Ames test; format: toxicity, subcellular; conditions: salmonella enterica subsp. enterica serovar typhimurium
hERG (KCNH2) = hERG (KCNH2) (Homo sapiens, UniProt Q12809); test: Inhibition of human ERG expressed in CHOK1 cells at 10 uM by automated patch clamp method relative to control; format: cell-based; conditions: CHO-K1 cells that express hERG
hERG (KCNH2), sequence (Q12809 whole entry): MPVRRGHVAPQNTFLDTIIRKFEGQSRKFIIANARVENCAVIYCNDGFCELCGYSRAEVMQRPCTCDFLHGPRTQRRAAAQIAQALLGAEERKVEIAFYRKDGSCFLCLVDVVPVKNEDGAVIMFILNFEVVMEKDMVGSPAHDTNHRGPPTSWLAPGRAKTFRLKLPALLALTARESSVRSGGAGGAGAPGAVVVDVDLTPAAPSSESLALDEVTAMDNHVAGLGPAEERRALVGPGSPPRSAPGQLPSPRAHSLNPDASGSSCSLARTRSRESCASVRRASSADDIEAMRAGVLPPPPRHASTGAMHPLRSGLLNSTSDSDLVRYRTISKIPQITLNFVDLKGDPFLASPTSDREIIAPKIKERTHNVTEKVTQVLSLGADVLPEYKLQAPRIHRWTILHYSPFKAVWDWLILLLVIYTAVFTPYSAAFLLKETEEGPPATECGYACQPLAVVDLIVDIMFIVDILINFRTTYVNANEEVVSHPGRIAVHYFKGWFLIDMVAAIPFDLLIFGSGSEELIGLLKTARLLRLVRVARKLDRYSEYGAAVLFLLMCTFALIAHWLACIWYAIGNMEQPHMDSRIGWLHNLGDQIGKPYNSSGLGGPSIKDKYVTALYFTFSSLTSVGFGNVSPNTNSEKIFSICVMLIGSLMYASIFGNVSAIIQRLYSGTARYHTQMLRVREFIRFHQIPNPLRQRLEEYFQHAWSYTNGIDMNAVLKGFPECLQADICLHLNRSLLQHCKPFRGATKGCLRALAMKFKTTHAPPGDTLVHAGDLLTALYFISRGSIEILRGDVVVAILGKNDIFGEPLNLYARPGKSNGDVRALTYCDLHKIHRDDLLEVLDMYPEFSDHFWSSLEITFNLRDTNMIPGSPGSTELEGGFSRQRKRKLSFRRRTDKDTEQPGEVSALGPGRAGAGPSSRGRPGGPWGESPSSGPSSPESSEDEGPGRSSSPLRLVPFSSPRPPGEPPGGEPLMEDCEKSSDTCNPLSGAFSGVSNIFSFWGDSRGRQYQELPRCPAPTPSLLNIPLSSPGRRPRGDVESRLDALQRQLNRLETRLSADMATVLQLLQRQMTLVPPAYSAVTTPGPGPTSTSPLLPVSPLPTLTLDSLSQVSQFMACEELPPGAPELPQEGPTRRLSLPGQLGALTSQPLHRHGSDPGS

Compound	half-life at 1 µM [1] [min]	IC50 (Plasmodium falciparum [2]) [nM]	IC50 (Plasmodium falciparum [3]) [nM]	half-life at 1 µM [4] [min]	IC50 (Plasmodium falciparum [5]) [nM]	selectivity ratio [6]	IC50 (Plasmodium falciparum [7]) [nM]	IC50 (HepG2) [nM]	IC50 (Plasmodium berghei) [nM]	IC50 (Plasmodium falciparum [8]) [nM]	IC50 (Plasmodium falciparum [9]) [nM]	IC50 (Plasmodium falciparum [10]) [nM]	IC50 (Plasmodium falciparum [11]) [nM]	inhibition (Plasmodium falciparum [12])	ED50 (Plasmodium yoelii) [mg/kg.day]	ED90 (Plasmodium yoelii) [mg/kg.day]	further results
O=c1c2ccc(OCCCl)cc2[nH]c2ccc(Cl)c(Cl)c12	> 60	1380	2.5	> 60	45	> 40000	27	> 100000	183								
CCCN(CCC)CCOc1ccc2c(=O)c3cc(Cl)ccc3[nH]c2c1	16	317	3.6	12	9.2	> 27800	15	> 100000	12.5								
CCN(CC)CCCOc1ccc2c(=O)c3ccc(Cl)cc3[nH]c2c1	34	1890	272	> 60	294	72	254	19700	436								
CCN(CC)CCOc1ccc2[nH]c3cc(Cl)ccc3c(=O)c2c1	34	97	110	> 60	81	272	132 to 366	30000	793	284	340	355	262	inactive			
O=C1C(O)=C([C@H]2CC[C@H](c3ccc(Cl)cc3)CC2)C(=O)c2ccccc21 [ATOVAQUONE]										1.9		4.1	0.5	inactive			IC50 (Plasmodium falciparum [13]): 6.9 nM
O=c1c2ccc(OCCCCl)cc2[nH]c2ccc(Cl)c(Cl)c12		1040	3.2		3.1	> 31200	17 to 22	> 100000		605	324	551	11.1	inactive			
CCN(CC)CCOc1ccc2c(=O)c3c(F)cc(F)cc3[nH]c2c1		1980	7.8		12	9950	16 to 20	77600		1150	60	525	15	inactive	1.62	9.91	
CCN(CC)CCCOc1ccc2c(=O)c3c(Cl)cc(Cl)cc3[nH]c2c1	16	228	19	9	114	6840	45	130000	138						0.43	24.1	Activity [14]: Non-Toxic; Activity [15]: Non-Toxic; Activity [16]: Non-Toxic; Activity [17]: Non-Toxic; inhibition at 10 µM (hERG (KCNH2)): 59%
CCN(CC)CCOc1ccc2c(=O)c3c(Cl)cc(Cl)cc3[nH]c2c1		465	8.2		21	1630	22 to 31	13400		612	1080	668	16	inactive	3.09	50.2	
C=C[C@H]1CN2CC[C@H]1C[C@H]2[C@H](O)c1ccnc2ccc(OC)cc12 [QUININE]							254				199	215		inactive			IC50 (Plasmodium falciparum [13]): 197 nM
CCCCCCOc1ccc2c(=O)c3c(F)cc(F)cc3[nH]c2c1		5.4	0.026		0.05	> 100000	0.041	> 100000	72						1.09	12.7	Activity [14]: Non-Toxic; Activity [15]: Non-Toxic; Activity [16]: Non-Toxic; Activity [17]: Non-Toxic; inhibition at 10 µM (hERG (KCNH2)): 20%
CCN(CC)CCCC(C)Nc1c2ccc(Cl)cc2nc2ccc(OC)cc12 (configuration not stated) [QUINACRINE]							29				29	18		inactive			IC50 (Plasmodium falciparum [13]): 23 nM
O=c1c2ccc(OCCCCCl)cc2[nH]c2cc(F)cc(F)c12	6	40	0.12	14	0.5	> 100000	0.16	> 100000	17								
